Here are results for two molecules from PMC5428521, “Identification of a Novel, Small Molecule Partial Agonist for the Cyclic AMP Sensor, EPAC1” (Scientific Reports, 2017).

For one test, the target named is T1, EPAC2-CNB (Mus musculus, UniProt Q9EQZ6).
T1 construct: EPAC2-CNB (amino acids 304–453 of EPAC2); made in house; host or cells: BL-21 Escherichia coli (pGEX-6P-1)
T1 sequence (Q9EQZ6 304-453 isoform Q9EQZ6-3): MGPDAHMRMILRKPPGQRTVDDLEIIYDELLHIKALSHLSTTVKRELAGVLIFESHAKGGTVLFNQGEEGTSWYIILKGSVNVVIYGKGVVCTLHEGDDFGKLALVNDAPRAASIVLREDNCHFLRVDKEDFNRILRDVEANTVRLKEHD
In words: Ligand observed NMR (1D and waterLOGSY) with EPAC2-CNB. It is filed as binding. As to conditions: compound 50 µM, protein 2.5 µM. The text has this: Given that I942 seems to exert selective agonist properties against EPAC1, but not EPAC2, we next sought to validate whether our isolated ligands can interact with EPAC1 and EPAC2. Ligand observed nuclear magnetic resonance (NMR) is a valuable tool for the identification and validation of small molecule ligands. We therefore used one dimensional proton (1D) and water-ligand observed by gradient spectroscopy (waterLOGSY) NMR to confirm the ability of I942 and I178 to bind to the purified CNBs of EPAC1 and EPAC2, in comparison with the commercially available EPAC1 antagonist, ESI-09[32]. In order to assess ligand/CNB interaction, 1D and waterLOGSY experiments were performed on each compound (50 µM) in the presence or absence of 2.5 µM EPAC-CNB. In the absence of protein, each test compound produced a well-resolved 1D spectrum and a region of each spectrum was chosen to display distinctive spectral peaks originating from the ligand (Fig. 6). In the absence of protein, the corresponding waterLOGSY peaks were small, or absent, due to the negligible signal produced by saturation transfer from water to the freely tumbling small molecule. […] In waterLOGSY spectra, protein-mediated saturation transfer can only occur if the protein-ligand complex has a substantial lifetime. […]
(A) One dimensional proton (1D) and waterLOGSY (WL) spectra were performed on samples containing hit compound I942 (50 µM) in the absence and presence of EPAC1-CNB, EPAC2-CNB or GST alone, as indicated (2.5 µM). […] Interaction between compound and protein was assessed through comparison of the compound alone and protein-compound sample spectra. […]
All NMR spectra were recorded on a Bruker AVANCE IIIHD 600 spectrometer equipped with a TCI cryoprobe at 285 K. Test compounds were prepared in deuterated DMSO and diluted to given experimental concentrations in NMR buffer (20 mM Na2PO4, pH 7.0, 50 mM NaCl, 0.1% (w/v) NaN3, 5% (v/v) D2O) with a final DMSO concentration below 0.1%. […] One dimensional proton (1D) and waterLOGSY spectra were recorded for all compounds tested, using pulse sequences as previously described. […]

Another test deals with protein kinase A (PKA). In words: PKA kinase activity assay in HEK293T cell extracts. The conditions noted are these: 1 mM cAMP, compound 0.1 to 100 µM. It is filed as biochemical. The procedure:
PKA activity was measured directly in cell extracts using the PKA Kinase Activity Assay Kit (Abcam) following the manufacturer's instructions. […] Cells were washed in ice-cold PBS containing phosphatase inhibitors, scrapped into Eppendorf tubes and centrifuged at 200 × g at 4 °C for 5 minutes. Supernatants were discarded and the cell pellet was re-suspended in Complete Lysis Buffer containing 1 mM DTT, 1 mM PMSF and protease inhibitor cocktail (Roche) and then incubated for 10 minutes on ice (on the rocking platform) followed by vortex and centrifugation at […] at 4 °C for 20 minutes. Cell extracts were then transferred to fresh Eppendorf tubes, assayed for protein content and then stored at -80 °C. […] Next, 10 μl of ATP was added to each well and incubated at 30 °C for 90 min, with gentle shaking. The reaction was stopped by aspirating the contents of each well and then 40 μl of PKA phosphospecific substrate antibody was added to each well and then the plate was covered with plastic wrap and incubated at room temperature for 60 min (with gentle shaking every 20 min). […] Fluorescence was then measured at 480/530 nm. […] PKA activity was then measured in the cell extracts using an ELISA assay according to the manufactures instructions. […]

On to `O=C(COc1ccc2ccccc2c1)NS(=O)(=O)c1ccccc1` [I178, N-(benzenesulfonyl)-2-(naphthalen-2-yloxy)acetamide], for which the NMR interaction result on EPAC2-CNB is given as “Weak, specific interaction”.
On to `Cc1ccc(S(=O)(=O)NC(=O)COc2ccc3ccccc3c2)c(C)c1` [I942, N-(2,4-dimethylbenzenesulfonyl)-2-(naphthalen-2-yloxy)acetamide], for which the NMR interaction entry on EPAC2-CNB is recorded as “Strong, Specific Interaction”. Besides, the “effect on PKA activity induced by cAMP” value with protein kinase A (PKA) was “did not significantly affect PKA activity”.
